Measured values taken from patent publication US6096788A, “Antimalaria and antibabesiosis agents and pharmaceutical compositions containing such agents” (priority 1996, dated 2000).

Legend:
[1] = test system: Babesia bovis, Babesia canis; experiment: In vitro antibabesia activity, (3H) hypoxanthine incorporation; type: cell-based; details: score from ED50 of (3H) hypoxanthine incorporation
Excerpt: The screening process for antimalaria activity, based on parasite incorporation of (^3 H) hypoxanthine was used to test the antimetabolic activity of such components against Babesia bovis, Babesia canis. A tight relationship was found between the rate of (^3 H) hypoxanthine incorporation using standard measurements and the percentage of parasitized cells determined by microscopy. […] The score was ++ for the same activity at a concentration of 0.01 to 0.1 micromoles and finally + for a concentration under or equal to 1 micromole.

[2] = Therapeutic index in infected mice (antimalaria activity compared with semi-chronic toxicity); type: in vivo; details: mouse, in vivo, i.p. or s.c., twice a day for four days, ratio of activity over toxicity (LD50)
Experimental: In order to evaluate the therapeutic index of the different products, the activity of these products was tested in vivo and compared with […] toxicity in animals. This activity was measured using the test described by PETERS W. (Chemotherapy and Drug resistance in Malaria, 1970). A compound was administered for four consecutive days to mice previously infected with Plasmodium vinckei, petterei or chabaudi. The said compound was dissolved in a 0.9% NaCl solution. The preparations were thus administered intraperitoneally or subcutaneously in male Swiss mice infected by intravenous injection of Plasmodium petterei or Plasmodium chadaudi (10^6 infected cells). The compound was administered twice a day for four consecutive days, the first injection being performed two hours after the infestation and the second, 10 hours later. The parasitemia was determined on blood smears the day after the end of treatment. Toxicity was measured in vivo following the same schedule, the animals having received, under the same administration conditions as above, two injections per day for four days (semi-chronic toxicity). The results are expressed in lethal dose 50 (LD50), i.e. the dose causing death in 50% of the animals.
The results of these trials are summarized in Table I, below, and expressed as therapeutic index, or the ratio of activity over toxicity measured under the identical conditions described above.

Compound | Antibabesia activity at 10 millimoles [1] | selectivity ratio [2]
CCC[N+](C)(CC)CCCCCCCCCCCCCCCCCCCCCC[N+](C)(CC)CCC (stereo not drawn) [EXAMPLE 7, N,N'-dimethyl-N,N'-diethyl-N N'-dipropyl-1,22-cosanediaminium dibromide] | ++ (the same activity at a concentration of 0.01 to 0.1 micromoles) | 35
C=CC[N+](C)(C)CCCCCCCCCCCCCC[N+](C)(C)CC=C.[Br-].[Br-] [EXAMPLE 25, N,N'-di(2-propenyl)-N,N,N',N'-tetramethyl-1,14-tetradecanediaminium dibromide] | +++ (a 50% inhibition of (^3 H) hypoxanthine incorporation (ED50), these molecules having a concentration less than or equal to 0.01 micromoles) | 15
CCC[N+](CCC)(CCO)CCCCCCCCCCCCCC[N+](CCC)(CCC)CCO.[Br-].[Br-] [EXAMPLE 27, N,N'-di(2-hydroxyethyl)-N,N,N',N'-tetrapropyl-1,14-tetradecanediaminium dibromide] | ++ (the same activity at a concentration of 0.01 to 0.1 micromoles) | 15
CCC[N+](C)(CC)CCCCCCCCCCCCCCCCC[N+](C)(CC)CCC.[Br-].[Br-] (stereo not drawn) [EXAMPLE 4, N,N'-dimethyl-N,N'-diethyl-N,N'-dipropyl-1,17-heptadecanediaminium dibromide] | ++ (the same activity at a concentration of 0.01 to 0.1 micromoles) | 17
CCC[N+](C)(CC)CCCCCCCCCCCCCCCCCCCC[N+](C)(CC)CCC.[Br-].[Br-] (stereo not drawn) [EXAMPLE 6, N,N'-dimethyl-N,N'-diethyl-N,N'-dipropyl-1,20-eicosanediaminium dibromide] | ++ (the same activity at a concentration of 0.01 to 0.1 micromoles) | 15
C[N+]1(CCCCCCCCCCCCCCCC[N+]2(C)CCOCC2)CCOCC1 [EXAMPLE 21, 1,1'-(1,16-hexadecanediyl)bis(1-methylmorphofinium) dibromide] | +++ (a 50% inhibition of (^3 H) hypoxanthine incorporation (ED50), these molecules having a concentration less than or equal to 0.01 micromoles) | 25
C[N+]1(CCCCCCCCCCCCCC[N+]2(C)CCCC2)CCCC1 [EXAMPLE 16, 1,1'-(1,14-tetradecanediyl)bis(1-methylpyrrolidium) dibromide] | +++ (a 50% inhibition of (^3 H) hypoxanthine incorporation (ED50), these molecules having a concentration less than or equal to 0.01 micromoles) | 8
CCC[N+](CCC)(CCO)CCCCCCCCCCCCCCCCCCCC[N+](CCC)(CCC)CCO.[Br-].[Br-] [EXAMPLE 30, N,N'-di(2-hydroxyethyl)-N,N,N',N'-tetrapropyl-1,20-eicosanediaminium dibromide] | +++ (a 50% inhibition of (^3 H) hypoxanthine incorporation (ED50), these molecules having a concentration less than or equal to 0.01 micromoles) | 55
CCCCCCCCCCCC[N+](C)(C)CCCCCCCCCCCCCCCC[N+](C)(C)CCCCCCCCCCCC.[Br-].[Br-] [EXAMPLE 22, N,N'-didodecyl-N,N,N',N'-tetramethyl-1,16-hexadecanediaminium dibromide] | ++ (the same activity at a concentration of 0.01 to 0.1 micromoles) | 20
CCC[N+](CCC)(CCC)CCCCCCCCCCCCCCCCCCCC[N+](CCC)(CCC)CCC.[Br-].[Br-] [EXAMPLE 10, N,N,N,N', N',N'-hexapropyl-1,20-eicosanediaminium dibromide] | + (a concentration under or equal to 1 micromole) | 14
CCC[N+](CCC)(CCC)CCCCCCCCCCCCCC[N+](CCC)(CCC)CCC.[Br-].[Br-] [EXAMPLE 8, N,N,N,N',N',N'-hexapropyl-1,14-tetradecanediaminium dibromide] | + (a concentration under or equal to 1 micromole) | 20
C[N+]1(CCCCCCCCCCCCCCCC[N+]2(C)CCCC2)CCCC1 [EXAMPLE 17, 1,1'-(1,16-hexadecanediyl)bis(1-methylpyrrolidium) dibromide] | +++ (a 50% inhibition of (^3 H) hypoxanthine incorporation (ED50), these molecules having a concentration less than or equal to 0.01 micromoles) | 7
CCC[N+](C)(CC)CCCCCCCCCCCCCC[N+](C)(CC)CCC (stereo not drawn) [EXAMPLE 1, N,N'-dimethyl-N,N'-diethyl-N,N'-dipropyl-1,14 tetradecanediaminium, dibromide] | ++ (the same activity at a concentration of 0.01 to 0.1 micromoles) | 50
CCC[N+](CCC)(CCC)CCCCCCCCCCCCCCCCCCCCCCCC[N+](CCC)(CCC)CCC.[Br-].[Br-] [EXAMPLE 11, N,N,N,N',N',N'-hexapropyl-1,24-tetracosanediaminium dibromide] | + (a concentration under or equal to 1 micromole) | 28
C#CC[N+](C)(C)CCCCCCCCCCCCCC[N+](C)(C)CC#C.[Br-].[Br-] [EXAMPLE 24, N,N'-di(2-propynyl)-N,N,N',N'-tetramethyl-1,14-tetradecandiaminium dibromide] | ++ (the same activity at a concentration of 0.01 to 0.1 micromoles) | 12
CC[N+](C)(CC)CCCCCCCCCCCCCCCCCCCCC[N+](C)(CC)CC [EXAMPLE 15, N,N'-dimethyl-,N,N,N',N'-tetraethyl-1,21-heneicosanediaminium dibromide] | +++ (a 50% inhibition of (^3 H) hypoxanthine incorporation (ED50), these molecules having a concentration less than or equal to 0.01 micromoles) | 12
CC[N+](C)(CC)CCCCCCCCCCCCCCCCCC[N+](C)(CC)CC [EXAMPLE 14, N,N'-dimethyl-,N,N,N',N'-tetraethyl-1,18-octadecanediaminium dibromide] | +++ (a 50% inhibition of (^3 H) hypoxanthine incorporation (ED50), these molecules having a concentration less than or equal to 0.01 micromoles) | 14
CCC[N+](C)(CC)CCCCCCCCCCCCCCCCCC[N+](C)(CC)CCC.[Br-].[Br-] (stereo not drawn) [EXAMPLE 5, N,N'-dimethyl-N,N'-diethyl-N,N'-dipropyl-1,18-octadecanediaminium dibromide] | +++ (a 50% inhibition of (^3 H) hypoxanthine incorporation (ED50), these molecules having a concentration less than or equal to 0.01 micromoles) | 12
CCCCCCCCCCCC[N+](C)(C)CCCCCCCCCCCCCCCCCC[N+](C)(C)CCCCCCCCCCCC [EXAMPLE 23] | + (a concentration under or equal to 1 micromole) | 35
C#CCC[N+](C)(C)CCCCCCCCCCCCCC[N+](C)(C)CCC#C.[Br-].[Br-] [EXAMPLE 26, N,N'-di(3-butynyl)-N,N,N',N'-tetramethyl-1,14-tetradecanediaminium dibromide] | ++ (the same activity at a concentration of 0.01 to 0.1 micromoles) | 45
C[N+]1(CCCCCCCCCCCCCCCCCCCCCC[N+]2(C)CCCC2CO)CCCC1CO (stereo not drawn) [EXAMPLE 19, 1,1'-(1,22-docosanediyl)bis(2-hydroxymethl-1-methylpyrrolidium) dibromide] | + (a concentration under or equal to 1 micromole) | 40
CCC[N+](CCC)(CCCCCCCCCCCCCC[N+](CCC)(CCC)CCOCC)CCOCC.[Br-].[Br-] [EXAMPLE 28, N,N'-di(2-ethoxyethyl)-N,N,N',N'-tetrapropyl-1,14-tetradecanediaminium dibromide] | +++ (a 50% inhibition of (^3 H) hypoxanthine incorporation (ED50), these molecules having a concentration less than or equal to 0.01 micromoles) | 40
CCC[N+](C)(CC)CCCCCCCCCCCCCCC[N+](C)(CC)CCC.[Br-].[Br-] (stereo not drawn) [EXAMPLE 2, N,N'-dimethyl-N,N'-diethyl-N,N'-dipropyl-1,15-pentadecanediaminium dibromide] | + (a concentration under or equal to 1 micromole) | 42
CCC[N+](CCC)(CCO)CCCCCCCCCCCCCCCC[N+](CCC)(CCC)CCO.[Br-].[Br-] [EXAMPLE 29, N,N'-di-(2-hydroxyethyl)-N,N,N',N'-tetrapropyl-1,16 hexadecane diaminium dibromide] | ++ (the same activity at a concentration of 0.01 to 0.1 micromoles) | 12
CCC[N+](C)(CC)CCCCCCCCCCCCCCCC[N+](C)(CC)CCC.[Br-].[Br-] (stereo not drawn) [EXAMPLE 3, N,N'-dimethyl-N,N'-diethyl-N,N'-dipropyl-1,16-hexadecanediaminium dibromide] | – | 15
CC[N+](C)(CC)CCCCCCCCCCCCCCCC[N+](C)(CC)CC [EXAMPLE 13, N,N'-dimethyl-,N,N,N',N'-tetraethyl-1,16-hexadecanediaminium dibromide] | +++ (a 50% inhibition of (^3 H) hypoxanthine incorporation (ED50), these molecules having a concentration less than or equal to 0.01 micromoles) | 6
